Measured values: patent publication US20250388605A1, “HETEROBIFUNCTIONAL COMPOUNDS AND METHODS OF TREATING DISEASE” (Halda Therapeutics OpCo, Inc., priority 2022, published 2025)

Tests used:
[1] = tested on: T-Rex 293 cell line SC cells having increased expression of progesterone receptor isoform B protein; test: Cellular growth inhibition assay, T-Rex 293 SC cells exposed to doxycycline (increased progesterone receptor isoform B expression), CellTiter-Glo; format: cell-based; conditions: T-Rex 293 SC cells with 10 ng/mL doxycycline (increased PR isoform B), 72 hours
Procedure: (§1) The SC cells were seeded on poly-D-lysine coated, black clear-bottom 384-well plates at 2500/well, in 25 μL Phenol Red Free Dulbecco's Modified Eagle Medium (DMEM) supplemented with 10% w/w charcoal-dextran treated fetal bovine serum (FBS) and 1% w/w pen-strep, with or without 10 ng/mL doxycycline. Pen-Strep is a commercially available mixture of penicillin G and streptomycin, which is used in mammalian cell culture media to prevent bacterial contamination. Phenol Red Free Dulbecco's Modified Eagle Medium (DMEM) supplemented with 10% w/w charcoal-dextran treated fetal bovine serum (FBS) and 1% w/w pen-strep, with or without 10 ng/mL doxycycline is herein referred to as Treatment Medium. Following seeding of cells in the plates, the plates were spun at 300×g for 30 seconds, then equilibrated to room temperature for 30 minutes, and then deposited in a humidified tissue culture incubator maintained at 37° C. with 5% CO2.
(§2) At 24 hours after seeding of the cells, dilutions of test compound were prepared in DMSO and dissolved in Treatment Medium, to achieve a final DMSO concentration of 0.5% w/w, thereby providing the Test Compound Solution. A 25 μL aliquot of the Test Compound Solution was added to cells in the well plates. An equal volume of a solution containing DMSO and Treatment Medium was used as a negative control. Following treatment of cells with Test Compound Solution or said equal volume of a solution containing DMSO and Treatment Medium, the plates were spun at 300×g for 30 seconds, and then left in an incubator for 72 hours.
(§3) At the end of the treatment duration, cell viability was quantified with CellTiter-Glo 2.0 reagent (Promega Cat #G9243). For this purpose, plates were equilibrated to room temperature for 30 minutes, and then 25 μL of CellTiter-Glo 2.0 reagent was added to cells in the plate wells. Plates were then agitated on a shaker for two minutes at 500 rpm and subsequently incubated at room temperature for 10 minutes. Following incubation, the plates were spun at 3000×g for 30 seconds, then sealed with an optical adhesive cover, and luminescence readings were measured with an EnVision Plate Reader (Perkin Elmer).
(§4) Data was normalized using zero luminescence for baseline. A four-parameter non-linear regression curve fit was applied to dose-response data in GraphPad Prism data analysis software to determine the half-maximal growth inhibitory concentration (GI50) for each test compound.

[2] = tested on: T-Rex 293 cell line SC cells lacking increased expression of progesterone receptor isoform B protein; test: Cellular growth inhibition assay, T-Rex 293 SC cells not exposed to doxycycline (no increased progesterone receptor isoform B expression), CellTiter-Glo; format: cell-based; conditions: T-Rex 293 SC cells without doxycycline (no increased PR isoform B), 72 hours
Procedure: as §1, §2, §3, §4

[3] = tested on: T-Rex 293 cell line SC3 cells lacking increased expression of androgen receptor protein; test: Cellular growth inhibition, T-Rex 293 SC3 cells without doxycycline (no increased androgen receptor expression), CellTiter-Glo; format: cell-based; conditions: T-Rex 293 SC3 cells not exposed to doxycycline (no increased androgen receptor expression), 72 hours
Outline: (§5)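 Growth inhibition is measured in an inducible AR-expressing T-Rex 293 clone, SC3, cultured with or without 10 ng/mL doxycycline in hormone-depleted medium. Test compounds are applied for 72 hours. GI50 values derive from CellTiter-Glo 2.0 signal fitted by four-parameter regression.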

VCaP cells = test: Cellular growth inhibition assay for VCaP cells, CellTiter-Glo; format: cell-based, human; conditions: 72 hours
Outline: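 GI50 values come from four-parameter curve fits of luminescence data normalized to a zero baseline. Compound, in medium with 0.5% DMSO, was added one day after plating and left for 72 h before CellTiter-Glo 2.0 addition.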

T47D cells = test: Cellular Growth Inhibition Assay for T47D Cells (CellTiter-Glo); format: cell-based, human; conditions: 72 hours
Outline: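 GI50 values derive from four-parameter regression of CellTiter-Glo 2.0 luminescence, using zero luminescence as baseline. Human breast cancer T47D cells (3000/well; DMEM, 10% FBS, 0.2 units/mL insulin) were exposed for 72 h to compound dilutions at 0.5% DMSO, with dosing starting 24 h after seeding.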

[4] = tested on: T-Rex 293 cell line SC3 cells having increased expression of androgen receptor protein due to exposure to doxycycline; test: Cellular growth inhibition, T-Rex 293 SC3 cells with doxycycline (increased androgen receptor expression), CellTiter-Glo; format: cell-based; conditions: T-Rex 293 SC3 cells with 10 ng/mL doxycycline (increased androgen receptor expression), 72 hours, CellTiter-Glo 2.0
Outline: as §5

[5] = target: T1, progesterone receptor ligand binding domain (GST-tagged PR LBD) (Homo sapiens, UniProt P06401); test: FP Assay for Binding Affinity to Progesterone Receptor (PolarScreen Progesterone Receptor Competitor Assay Kit); conditions: fluorescence polarization, Fluormone tracer, 2 hours at room temperature
T1 construct: purchased Life Technologies A15905 or a15906
T1 sequence (P06401 679-913 limits assumed): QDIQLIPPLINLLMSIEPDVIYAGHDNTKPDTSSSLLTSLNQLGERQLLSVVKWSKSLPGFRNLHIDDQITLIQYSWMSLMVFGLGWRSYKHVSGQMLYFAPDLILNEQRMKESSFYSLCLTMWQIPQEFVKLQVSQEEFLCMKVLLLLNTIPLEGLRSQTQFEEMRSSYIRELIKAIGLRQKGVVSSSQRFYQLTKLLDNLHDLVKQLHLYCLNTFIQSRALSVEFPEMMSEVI
Procedure: Exemplary compounds were tested for ability to bind to the progesterone receptor ligand binding domain (LBD).
Compounds were tested using the PolarScreen™ Progesterone Receptor Competitor Assay Kit (Life Technologies Cat #A15905 or a15906), as per the manufacturer's instructions. Briefly, GST-tagged PR LBD, Fluormone tracer, and compound were mixed and incubated for 2 hours at room temperature in the dark. Following incubation, the plates were spun at 3000×g for 30 seconds, then sealed with an optical adhesive cover, and fluorescence polarization was measured using appropriate excitation and emission filters with an EnVision Plate Reader (Perkin Elmer). Compound concentration vs. mP value were plotted in Prism (GraphPad). A four-parameter non-linear regression curve fit was applied to dose-response data to determine the half-maximal inhibitory concentration (IC50) for each test compound.

| Compound | GI50 (VCaP cells; Homo sapiens) | GI50 (T47D cells; Homo sapiens) | IC50 [5] | GI50 (VCaP cells) | GI50 (T47D cells) | GI50 [1] | GI50 [2] | GI50 [3] | GI50 [4] |
| --- | --- | --- | --- | --- | --- | --- | --- | --- | --- |
| CCS(=O)(=O)Nc1ccc(Oc2cccc(OCCCC3CCN(c4ncc(C(=O)N[C@H]5C(C)(C)[C@H](Oc6ccc(C#N)c(Cl)c6)C5(C)C)cn4)CC3)c2)c(-c2cn(C)c(=O)c3[nH]ccc23)c1 [Compound I-27] | < 500 nM | < 500 nM | – | – | – | < 500 nM | > 3000 nM | 500 to 1500 nM | < 500 nM |
| CCS(=O)(=O)Nc1ccc(Oc2cccc(N3CCC(CC4CCN(c5ncc(C(=O)N[C@H]6C(C)(C)[C@H](Oc7ccc(C#N)c(Cl)c7)C6(C)C)cn5)CC4)CC3)c2)c(-c2cn(C)c(=O)c3[nH]ccc23)c1 [Compound I-36] | < 500 nM | < 500 nM | – | – | – | < 500 nM | > 3000 nM | > 3000 nM | < 500 nM |
| CCS(=O)(=O)Nc1ccc(Oc2cccc(OC3CC4(CCN(c5ncc(C(=O)N[C@H]6C(C)(C)[C@H](Oc7ccc(C#N)c(Cl)c7)C6(C)C)cn5)CC4)C3)c2)c(-c2cn(C)c(=O)c3[nH]ccc23)c1 [Compound I-44] | < 500 nM | < 500 nM | – | – | – | < 500 nM | > 3000 nM | > 3000 nM | < 500 nM |
| CCS(=O)(=O)Nc1ccc(Oc2cccc(N3CC(C4CCN(c5ncc(C(=O)N[C@H]6C(C)(C)[C@H](Oc7ccc(C#N)c(Cl)c7)C6(C)C)cn5)CC4)C3)c2)c(-c2cn(C)c(=O)c3[nH]ccc23)c1 [Compound I-74] | < 500 nM | < 500 nM | > 2500 nM | – | – | – | – | < 500 nM | < 500 nM |
| CCS(=O)(=O)Nc1ccc(Oc2cccc(N3CC(OC4CCN(c5ncc(C(=O)N[C@H]6C(C)(C)[C@H](Oc7ccc(C#N)c(Cl)c7)C6(C)C)cn5)CC4)C3)c2F)c(-c2cn(C)c(=O)c3[nH]ccc23)c1 [Compound I-175] | – | – | – | < 500 nM | < 500 nM | < 500 nM | > 3000 nM | < 500 nM | < 500 nM |
| CCS(=O)(=O)c1ccc(Oc2cccc(CCCOC3CC4(C3)CN(c3ncc(C(=O)N[C@H]5C(C)(C)[C@H](Oc6ccc(C#N)c(Cl)c6)C5(C)C)cn3)C4)c2F)c(-c2cn(C)c(=O)c3[nH]ccc23)c1 [Compound I-205] | < 500 nM | < 500 nM | – | – | – | < 500 nM | < 500 nM | < 500 nM | < 500 nM |
| CCS(=O)(=O)c1ccc(Oc2cccc(CCCCN3CC4(C3)CN(c3ncc(C(=O)N[C@H]5C(C)(C)[C@H](Oc6ccc(C#N)c(Cl)c6)C5(C)C)cn3)C4)c2F)c(-c2cn(C)c(=O)c3[nH]ccc23)c1 [Compound I-206] | < 500 nM | < 500 nM | – | – | – | < 500 nM | < 500 nM | < 500 nM | < 500 nM |
| CCS(=O)(=O)c1ccc(Oc2ccc(OCC3CCN(c4ncc(C(=O)N[C@H]5C(C)(C)[C@H](Oc6ccc(C#N)c(Cl)c6)C5(C)C)cn4)CC3)cc2)c(-c2cn(C)c(=O)c3[nH]ccc23)c1 [Compound I-213] | – | – | – | < 500 nM | < 500 nM | < 500 nM | < 500 nM | < 500 nM | < 500 nM |
| Cn1cc(-c2cc(C(C)(C)O)ccc2Oc2ccc(N3CC(C4CCN(c5ncc(C(=O)N[C@H]6C(C)(C)[C@H](Oc7ccc(C#N)c(Cl)c7)C6(C)C)cn5)CC4)C3)cc2)c2cc[nH]c2c1=O [Compound I-299] | – | – | – | < 500 nM | < 500 nM | < 500 nM | 500 to 1500 nM | > 3000 nM | < 500 nM |
| Cn1cc(-c2cc(C(C)(C)O)ccc2Oc2ccc(N3CC(CC4CN(c5cnc(C(=O)N[C@H]6C(C)(C)[C@H](Oc7ccc(C#N)c(Cl)c7)C6(C)C)cn5)C4)C3)cc2)c2cc[nH]c2c1=O [Compound I-317] | < 500 nM | < 500 nM | – | – | – | < 500 nM | 500 to 1500 nM | < 500 nM | < 500 nM |
| Cn1cc(-c2cc(C(C)(C)O)ccc2Oc2ccc(N3CC(CC4CN(c5ccc(C(=O)N[C@H]6C(C)(C)[C@H](Oc7ccc(C#N)c(Cl)c7)C6(C)C)nc5)C4)C3)cc2)c2cc[nH]c2c1=O [Compound I-322] | – | – | – | 500 to 1500 nM | < 500 nM | < 500 nM | 1500 to 3000 nM | 1500 to 3000 nM | < 500 nM |

More lines, main results first:

| GI50 (VCaP cells; Homo sapiens) | GI50 (T47D cells; Homo sapiens) | IC50 [5] | GI50 (VCaP cells) | GI50 (T47D cells) | Compound | GI50 [1] | GI50 [2] | GI50 [3] | GI50 [4] |
| --- | --- | --- | --- | --- | --- | --- | --- | --- | --- |
| < 500 nM | < 500 nM | – | – | – | CN(CCc1ccc(Oc2ccc(C(C)(C)O)cc2-c2cn(C)c(=O)c3[nH]ccc23)cc1)c1ncc(C(=O)N[C@H]2C(C)(C)[C@H](Oc3ccc(C#N)c(Cl)c3)C2(C)C)cn1 [Compound I-198] | < 500 nM | < 500 nM | < 500 nM | < 500 nM |
| < 500 nM | < 500 nM | – | – | – | CN(CCOc1ccc(Oc2ccc(C(C)(C)O)cc2-c2cn(C)c(=O)c3[nH]ccc23)cc1)c1ncc(C(=O)N[C@H]2C(C)(C)[C@H](Oc3ccc(C#N)c(Cl)c3)C2(C)C)cn1 [Compound I-199] | < 500 nM | < 500 nM | < 500 nM | < 500 nM |
| < 500 nM | 500 to 1500 nM | – | – | – | CN(CCCOc1ccc(Oc2ccc(C(C)(C)O)cc2-c2cn(C)c(=O)c3[nH]ccc23)cc1)c1ncc(C(=O)N[C@H]2C(C)(C)[C@H](Oc3ccc(C#N)c(Cl)c3)C2(C)C)cn1 [Compound I-200] | < 500 nM | < 500 nM | 500 to 1500 nM | < 500 nM |
| < 500 nM | – | – | – | – | Cn1cc(-c2cc(C(C)(C)O)ccc2Oc2ccc(CC3CC4(CCN(c5ncc(C(=O)N[C@H]6C(C)(C)[C@H](Oc7ccc(C#N)c(Cl)c7)C6(C)C)cn5)CC4)C3)cc2)c2cc[nH]c2c1=O [Compound I-279] | < 500 nM | > 3000 nM | > 3000 nM | < 500 nM |
| – | – | – | < 500 nM | < 500 nM | Cn1cc(-c2cc(C(C)(C)O)ccc2Oc2ccc(N3CC(OC4CN(c5ncc(C(=O)N[C@H]6C(C)(C)[C@H](Oc7ccc(C#N)c(Cl)c7)C6(C)C)cn5)C4)C3)cc2)c2cc[nH]c2c1=O [Compound I-303] | < 500 nM | 500 to 1500 nM | < 500 nM | < 500 nM |
| – | – | – | < 500 nM | < 500 nM | Cn1cc(-c2cc(C(C)(C)O)ccc2Oc2ccc(C3CN(C4CCN(c5ncc(C(=O)N[C@H]6C(C)(C)[C@H](Oc7ccc(C#N)c(Cl)c7)C6(C)C)cn5)CC4)C3)cc2)c2cc[nH]c2c1=O [Compound I-304] | < 500 nM | 500 to 1500 nM | < 500 nM | < 500 nM |
